Literature values as cited in patent US6900339B2, “Bryostatin composition and bryostatin acquisition methodologies” (The University of North Carolina at Chapel Hill, priority 2002, dated 2005).

Test system: leukemia
Conditions: background statement

CCC/C=C/C=C/C(=O)O[C@H]1/C(=C/C(=O)OC)C[C@H]2C[C@H]([C@@H](C)O)OC(=O)C[C@H](O)C[C@@H]3C[C@H](OC(C)=O)C(C)(C)[C@](O)(C[C@@H]4C/C(=C/C(=O)OC)C[C@H](/C=C/C(C)(C)[C@]1(O)O2)O4)O3 [bryostatin 1]
effectiveness against leukemia: particularly effective
